Measured values published in publication PMC11869560, “Anticancer and cancer preventive activities of shogaol and curcumin from Zingiberaceae family plants in KG-1a leukemic stem cells” (BMC Complementary Medicine and Therapies, 2025).
Values after ≈ are worked out from the molar mass of the structure shown.

How the values were obtained:
[1] = tested on: KG-1a cells; assay: MTT cytotoxicity assay in KG-1a cells; format: cell-based, human; details: for Selectivity index (SI): IC50 for normal cells (PBMCs) / IC50 for cancer cells (KG-1a)
Procedure: (§1) MTT (3-(4,5-dimethylthiazol-2-yl)-2,5-diphenyltetrazolium bromide) assay was used to investigate the cytotoxicity of the test samples. KG-1a (1.5 × 10^4 cells/well), K562 (1.0 × 10^4 cells/well), PBMCs (1.0 × 10^5 cells/well), A549 (5.0 × 10^3 cells/well), MCF-7 (5.0 × 10^3 cells/well), and HeLa (5.0 × 10^3 cells/well) were seeded into a 96-well plate and incubated overnight at 37 °C with 5% CO2. […] After that, 5 mg/mL of MTT dye solution (Sigma-Aldrich, MA, USA) was added and incubated for 4 h. The produced formazan crystals were dissolved in 200 µL of DMSO (Sigma-Aldrich, MA, USA); then, the optical density (OD) was measured using an ELISA plate reader (Metertech, Taipei, Taiwan) at 578 nm with a reference wavelength of 630 nm. The percentage of surviving cells was calculated from the absorbance values of the test and control wells using the following Equation. 1 [drawing 1]
(§2) where ODsample is a mean absorbance in test well and ODvehicle control is a mean absorbance in VC well. The average percentage of surviving cells at each concentration obtained from triplicate experiments was plotted as a dose-response curve. Inhibitory concentration values at 50% growth (IC50 value) were defined as the lowest concentration of the test sample that inhibited cell growth by 50% compared to the untreated control.
(§3) To calculate IC50 values, a dose-response curve was fitted using non-linear regression analysis, as described in the GraphPad Prism guidelines (https://www.graphpad.com/support/faq/how-to-determine-an-icsub50sub/). The IC50 value was obtained by determining the point at which the curve intersected 50% growth inhibition. Non-linear regression graphs of the dose-response curve for each compound are provided in the supplementary data file (Figs. S1–S8).
where IC50 N is IC50 for normal cells and IC50 C is IC50 for cancer cells which were treated with the same compounds in both cells.

[2] = tested on: PBMCs; assay: MTT cytotoxicity assay in PBMCs; format: cell-based, human
Procedure: PBMCs were isolated from blood samples using the Ficoll-Hypaque technique. Initially, 10–20 mL of blood was collected in a heparin tube at a ratio of 1:500 from a minimum of three healthy volunteers. Subsequently, the blood samples were diluted with Phosphate buffer saline (PBS), pH 7.4, at a ratio of 1:1 to reduce viscosity. Histopaque-1077 (Sigma-Aldrich, MA, USA) was then underlaid the diluted sample and centrifuged at 400×g for 30 min. The resulting PBMCs were collected, washed with PBS, pH 7.4, and prepared for further experiments.
as §1, §2, §3

[3] = tested on: RAW264.7 cells; assay: Cytotoxicity (IC20, cell viability) in RAW264.7 cells; format: cell-based; details: incubation for 48 h
Procedure: MTT (3-(4,5-dimethylthiazol-2-yl)-2,5-diphenyltetrazolium bromide) assay was used to investigate the cytotoxicity of the test samples. […] After that, 5 mg/mL of MTT dye solution (Sigma-Aldrich, MA, USA) was added and incubated for 4 h. The produced formazan crystals were dissolved in 200 μL of DMSO (Sigma-Aldrich, MA, USA); then, the optical density (OD) was measured using an ELISA plate reader ([…], Taiwan) at 578 nm with a reference wavelength of 630 nm. The percentage of surviving cells was calculated from the absorbance values of the test and control wells using the following Equation. 1 [drawing 1] […] Afterward, supernatants were collected, and the levels of TNF-α and NO were measured using the Mouse TNF alpha Uncoated ELISA Kit (InvitrogenTM, ThermoFisher Scientific, MA, USA) and the Total Nitric Oxide Assay Kit (InvitrogenTM, ThermoFisher Scientific, MA, USA), respectively, according to the manufacturer's instructions.

[4] = tested on: NO production in LPS-activated RAW264.7 cells; assay: NO production in LPS-activated RAW264.7 cells; format: cell-based, mouse; details: IC20 concentration, LPS-activated, 24 h
Procedure: For the measurement of tumor necrosis factor-alpha (TNF-α) and NO, RAW264.7 cells were pre-treated with plant extracts and active compounds at a non-cytotoxic dose (IC20) (Table S9) or 1 µg/mL of dexamethasone (positive control) in a 24-well plate for 2 h. Subsequently, 1 µg/mL of lipopolysaccharide (LPS) (Cat No. 00497693, Invitrogen™, MA, USA) was added to each well, and the cells were incubated for an additional 24 h to allow sufficient time for the compounds to exert measurable anti-inflammatory effects while maintaining cell viability. Afterward, supernatants were collected, and the levels of TNF-α and NO were measured using the Mouse TNF alpha Uncoated ELISA Kit (Invitrogen™, ThermoFisher Scientific, MA, USA) and the Total Nitric Oxide Assay Kit (Invitrogen™, ThermoFisher Scientific, MA, USA), respectively, according to the manufacturer’s instructions.
The percentage of NO or cytokine inhibitions were calculated using the following equation: […]
where A is the level of cytokine or NO without treatment, and B is the level of cytokine or NO with treatment.

[5] = tested on: WT1 protein expression in KG-1a cells; assay: WT1 protein expression in KG-1a cells by Western blotting; format: cell-based, human; details: IC20 concentrations, 48 h, normalized to GAPDH
Procedure: (§4) KG-1a cells (1.5 × 10^5 cells/mL) were treated with compounds or extracts at different incubation times. Then, the cells were harvested and the whole proteins were extracted using a RIPA buffer (25 mM Tris-base, pH 7.6, 0.1% SDS, 1% Triton X-100, 150 mM NaCl, and 1 mM EDTA). The protein concentration was measured using the Folin-Lowry or Bradford assay. The whole protein lysates (30 µg/lane) were then separated through 7.5% SDS-PAGE under reducing conditions and then transferred to PVDF membranes. The membranes were blocked in 5% skim milk in PBS, pH 7.4 at RT for 2 h, then, target proteins were probed with specific primary antibodies (anti-WT1, anti-CD34, anti-GAPDH, anti-cleaved caspase-3, anti-cleaved PARP, anti-phospho-Akt, anti-phospho-c-Jun, anti-phospho-SAPK/JNK, and anti-YAP/TAZ) indicated in Table S10 which diluted at a ratio of 1:1,000 in PBS, pH 7.4 at RT for 2 h. After incubation, the membranes were rinsed 6 times with 0.1% Tween-20 (Sigma-Aldrich, MA, USA) in PBS, pH 7.4 (PBS-T), each time for 5 min. The reaction was followed by HRP-conjugated secondary antibody at 1:20,000 dilution in PBS, pH 7.4 at RT for 2 h, then, the membranes were rinsed 6 times for 5 min each with PBS-T. The proteins were shown using Immobilon Forte Western HRP substrate (Millipore, MA, USA). Finally, the protein band signal was quantified by using a scan densitometer (Bio-Rad Laboratories, CA, USA).

[6] = tested on: CD34 protein expression in KG-1a cells; assay: CD34 protein expression in KG-1a cells by Western blotting; format: cell-based, human; details: IC20 concentrations, 48 h, normalized to GAPDH
Procedure: as §4

[7] = tested on: KG-1a cells; assay: Trypan blue exclusion test, cell numbers of KG-1a cells; format: cell-based, human; details: IC20 concentrations, 48 h
Procedure: This test was used to confirm the cytotoxicity of the test samples. The cancer cells after exposure to crude ethanolic extracts and active compounds for 48 h were harvested and washed with ice-cold PBS, pH 7.4 for 3 times. Then, the cells were resuspended with PBS, pH 7.4. The cell suspensions were diluted with PBS, pH 7.4 at the appropriate dilution before being mixed with 0.2% trypan blue solution at 1:2 dilution for cell count on a hemocytometer. From this test, the viable cells and the dead cells could also be obviously detected.
This test was used to confirm the cytotoxicity of crude ethanolic extracts and active compounds. KG-1a cells after exposure to crude ethanolic extracts and active compounds for 48 h were harvested and washed with ice-cold PBS, pH 7.4 for 3 times. Then, the cells were resuspended with PBS, pH 7.4. The cell suspensions were diluted with PBS, pH 7.4 at the appropriate dilution before being mixed with 0.2% trypan blue solution at 1:2 dilution for cell count on a hemocytometer. From this test, the viable cells and the dead cells could also be obviously detected.

[8] = active compounds and drugs, MTT, 48 h

## CCCCC[C@H](O)CC(=O)CCc1ccc(O)c(OC)c1 [Gingerol, gingerol]
[1]; 48 h
  Selectivity index (SI): > 1.30
[1]; 48 h, listed as gingerol
  Selectivity index (SI): greater than 1
[1]; Table S7, KG-1a, first replicate
  IC50 value R1: 77.86 µg/mL (≈ 264 µM)
[1]; Table S7, KG-1a, third replicate
  IC50 value R3: 77.08 µg/mL (≈ 262 µM)
[1]; [8]
  IC50 KG-1a: 76.77 ± 1.28 µg/mL (≈ 261 µM)
[1]; incubation for 48 h
  IC20 KG-1a (inhibitory concentration at 20% growth): 14.09 ± 3.87 µg/mL (≈ 47.9 µM)
[2]; Table S8, PBMCs, first replicate
  IC50 value R1: > 100 µg/mL
[2]; Table S8, PBMCs, mean of R1-R3
  IC50 value Mean: > 100 µg/mL
[2]; Table S8, PBMCs, third replicate
  IC50 value R3: > 100 µg/mL
[2]; [8]
  IC50 PBMCs: > 100 µg/mL
[2]; incubation for 48 h
  IC20 PBMCs (inhibitory concentration at 20% growth): 76.94 ± 4.13 µg/mL (≈ 261 µM)
[3]
  IC20 RAW264.7 (inhibitory concentration at 20% growth): 16.73 ± 4.64 µg/mL (≈ 56.8 µM)
[4]
  effect on NO production compared to dexamethasone (positive control): had no effect
[5]
  decrease of WT1 protein level compared to VC: 43.98 ± 8.93%
[6]
  decrease of CD34 protein level compared to VC: 31.95 ± 5.70%
[7]
  decrease of total cell number compared to VC: 31.39 ± 8.69%
  normalized viable cell counts: 979.50 ± 8.90 × 10^3 cells per 1 million total cells
